From publication PMC11266321 (EJNMMI Radiopharmacy and Chemistry, 2024) come the findings set out here.

Where only a bound is given, the exact number is not on record here.

In data set [1] the target is T1, Adenosine A2 (Homo sapiens, UniProt P29274).
T1 construct: Sekisui Medical (contract laboratory)
Put plainly: Radioligand binding inhibition, Adenosine A2. As to conditions: 10 µM; radioligand [^3H]CGS21680; mean of duplicate. The procedure: (§1) Interaction of MMP with 28 binding sites was examined, including major classes of neurotransmitter receptor, uptake system, and ion channels (Sekisui Medical, Naka, Japan). MMP was tested in all assays at 10 µM. […] Each determination was made in duplicate.
(§2) Test substance concentration : 10 µM, positive substance concentration : 10 µM
(§3) Data are expressed as the mean values of duplicate samples.
(§4) The % inhibition was calculated from “100 – binding ratio”.
(§5) Binding ratio: [(B - N) / (B0 - N)] × 100 (%)
(§6) B: Bound radioactivity in the presence of test substance and positive substance (individual value)
(§7) B0: Total bound radioactivity in the absence of test substance and positive substance (mean value)
(§8) N: Non-specific bound radioactivity (mean value)

Data set [2] deals with GABA A (agonist site). Kind of data set: Radioligand binding inhibition, GABA A agonist site. The settings on record: 10 µM; radioligand [^3H]Muscimol; mean of duplicate. The procedure:
(§9) Interaction of MMP with 28 binding sites was examined, including major classes of neurotransmitter receptor, uptake system, and ion channels (Sekisui Medical, Naka, Japan). MMP was tested in all assays at 10 µM. […] 10.2.3 (GraphPad Software, San Diego, CA). Each determination was made in duplicate.
as §2, §3, §4, §5, §6, §7, §8

Data set [3] deals with Nicotinic (neuronal). The data set is classed as binding. As to conditions: 10 µM; radioligand [^3H]Cytisine; mean of duplicate.
The target of data set [4] is T2, Histamine H3 (Homo sapiens, UniProt Q9Y5N1).
T2 construct: Sekisui Medical (contract laboratory)
T2 sequence (Q9Y5N1 whole entry): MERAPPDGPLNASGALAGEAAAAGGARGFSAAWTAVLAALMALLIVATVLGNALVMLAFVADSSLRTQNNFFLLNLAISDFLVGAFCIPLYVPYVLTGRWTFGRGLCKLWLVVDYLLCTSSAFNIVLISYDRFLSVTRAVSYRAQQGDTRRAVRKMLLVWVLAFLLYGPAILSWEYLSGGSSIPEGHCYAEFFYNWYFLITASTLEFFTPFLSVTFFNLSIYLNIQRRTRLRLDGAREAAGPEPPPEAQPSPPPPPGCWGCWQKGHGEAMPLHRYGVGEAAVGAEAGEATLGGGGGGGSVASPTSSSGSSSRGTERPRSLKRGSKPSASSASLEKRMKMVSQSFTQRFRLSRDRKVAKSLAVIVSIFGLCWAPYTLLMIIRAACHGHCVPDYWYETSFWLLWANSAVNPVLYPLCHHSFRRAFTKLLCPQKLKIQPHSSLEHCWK
Kind of data set: Radioligand binding inhibition, Histamine H3. As to conditions: 10 µM; radioligand [^3H]N-methyl-histamine; mean of duplicate. On the procedure:
as §1, §2, §3, §4, §5, §6, §7, §8

Data set [5] concerns α1-Adrenergic (non-selective). Put plainly: Radioligand binding inhibition, α1-Adrenergic. The settings on record: 10 µM; radioligand [^3H]Prazosin; mean of duplicate.
The target in data set [6] is T3, Dopamine D1 (Homo sapiens, UniProt P21728).
T3 construct: Sekisui Medical (contract laboratory)
T3 sequence (P21728 whole entry): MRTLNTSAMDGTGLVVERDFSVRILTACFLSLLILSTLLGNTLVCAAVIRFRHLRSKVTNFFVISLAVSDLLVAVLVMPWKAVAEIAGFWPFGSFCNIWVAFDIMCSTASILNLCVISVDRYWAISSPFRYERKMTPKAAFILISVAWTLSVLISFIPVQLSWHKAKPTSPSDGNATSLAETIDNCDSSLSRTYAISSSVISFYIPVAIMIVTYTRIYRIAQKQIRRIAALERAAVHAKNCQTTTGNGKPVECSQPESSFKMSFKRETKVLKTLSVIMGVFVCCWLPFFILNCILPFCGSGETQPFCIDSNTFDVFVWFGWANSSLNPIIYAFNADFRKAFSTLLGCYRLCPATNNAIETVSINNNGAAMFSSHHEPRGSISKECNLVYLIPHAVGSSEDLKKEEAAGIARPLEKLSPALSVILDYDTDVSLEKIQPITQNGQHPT
Put plainly: Radioligand binding inhibition, Dopamine D1. As to conditions: 10 µM; radioligand [^3H]SCH23390; mean of duplicate. The procedure: as §1, §2, §3, §4, §5, §6, §7, §8

In data set [7] the test system is α2-Adrenergic (non-selective). Kind of data set: Radioligand binding inhibition, α2-Adrenergic. As to conditions: 10 µM; radioligand [^3H]Rauwolscine; mean of duplicate. The procedure: as §9, §2, §3, §4, §5, §6, §7, §8
Data set [8] concerns the target T4, Histamine H1 (central) (Homo sapiens, UniProt P35367).
T4 construct: Sekisui Medical (contract laboratory)
The data set is classed as binding. The settings on record: 10 µM; radioligand [^3H]Pyrilamine; mean of duplicate.

Data set [9] relates to Salmonella typhimurium (TA98, TA100, TA1535, and TA1537). Kind of data set: Ames test (reverse bacterial mutation test), Salmonella. The data set is classed as cell-based. As to conditions: with and without S9 mixture, 78.1–5000 µg/plate. The text has this: The MMP was custom synthesized by the Nard Institute (Kobe, Japan) using methods described previously (Toyohara et al. [2020a]). All other chemical reagents were obtained from commercial sources. Male ddY mice were obtained from Japan SLC (Hamamatsu, Japan). Sprague–Dawley rats [Crl: CD(SD)] were obtained from […] (Yokohama, Japan). Animal studies were approved by the Animal Care and Use Committee of the Tokyo Metropolitan Institute for Geriatrics and Gerontology (Approval Nos. 22,015 and 23,007) and Nihon Bioresearch (Hashima, Japan; Approval Nos. 430,085 and 430,086). Acute toxicity studies were performed under the “Revisions of the Guidelines for Single and Repeated Dose Toxicity Studies” (PMDA, 1993). Ames test was performed under the “Guidance on Genotoxicity Testing and Data Interpretation for Pharmaceuticals Intended for Human Use” (PMDA, 2012).
Mutagenicity tests were performed at the Hashima Research Center, Nihon Bioresearch, under non-GLP control. MMP was tested for mutagenicity by the Ames test with four histidine-requiring strains of Salmonella typhimurium (TA98, TA100, TA1535, and TA1537) and one strain of Escherichia coli (WP2uvrA), with and without the S9 mixture, at a dose range of 78.1–5000 µg/plate according to the standard method.
For orientation: The Ames test uses bacterial strains that need an amino acid and regain growth without it when mutated back.

Data set [10] relates to other brain neuroreceptors. Put plainly: Receptor selectivity panel, other binding sites. As to conditions: 10 µM; binding sites other than sigma. The procedure:
as §9

The target of data set [11] is T5, Muscarinic M2 (Homo sapiens, UniProt P08172).
T5 construct: Sekisui Medical (contract laboratory)
T5 sequence (P08172 whole entry): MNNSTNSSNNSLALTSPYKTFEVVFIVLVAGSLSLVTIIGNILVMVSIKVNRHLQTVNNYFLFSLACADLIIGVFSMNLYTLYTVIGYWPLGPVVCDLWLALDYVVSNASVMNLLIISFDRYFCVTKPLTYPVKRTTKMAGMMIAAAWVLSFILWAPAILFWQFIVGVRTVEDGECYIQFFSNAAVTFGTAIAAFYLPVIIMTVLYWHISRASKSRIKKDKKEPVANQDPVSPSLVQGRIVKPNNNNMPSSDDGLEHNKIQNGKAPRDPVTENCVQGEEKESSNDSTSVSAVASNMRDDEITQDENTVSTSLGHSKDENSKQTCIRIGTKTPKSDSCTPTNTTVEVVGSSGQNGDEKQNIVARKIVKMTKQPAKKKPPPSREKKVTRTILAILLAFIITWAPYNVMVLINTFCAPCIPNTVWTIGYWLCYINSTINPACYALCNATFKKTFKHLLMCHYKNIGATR
Kind of data set: Radioligand binding inhibition, Muscarinic M2. As to conditions: 10 µM; radioligand [^3H]AF-DX384; mean of duplicate. The procedure: as §1, §2, §3, §4, §5, §6, §7, §8

Data set [12] has as its target T6, Serotonin 5HT2A (Homo sapiens, UniProt P28223).
T6 construct: Sekisui Medical (contract laboratory that ran the panel)
Put plainly: Radioligand binding inhibition, Serotonin 5HT2A. As to conditions: 10 µM; radioligand [^3H]Ketanserin; mean of duplicate. The procedure:
as §9, §2, §3, §4, §5, §6, §7, §8

In data set [13] the test system is Opiate (non-selective). Kind of data set: Radioligand binding inhibition, Opiate. As to conditions: 10 µM; radioligand [^3H]Naloxone; mean of duplicate. The procedure:
as §9, §2, §3, §4, §5, §6, §7, §8

In data set [14] the test system is β-Adrenergic (non-selective). Put plainly: Radioligand binding inhibition, β-Adrenergic. As to conditions: 10 µM; radioligand [^3H]DHA; mean of duplicate. On the procedure: as §9, §2, §3, §4, §5, §6, §7, §8
Data set [15] deals with T7, Dopamine D2 (Homo sapiens, UniProt P14416).
T7 construct: Sekisui Medical (contract laboratory)
T7 sequence (P14416 whole entry): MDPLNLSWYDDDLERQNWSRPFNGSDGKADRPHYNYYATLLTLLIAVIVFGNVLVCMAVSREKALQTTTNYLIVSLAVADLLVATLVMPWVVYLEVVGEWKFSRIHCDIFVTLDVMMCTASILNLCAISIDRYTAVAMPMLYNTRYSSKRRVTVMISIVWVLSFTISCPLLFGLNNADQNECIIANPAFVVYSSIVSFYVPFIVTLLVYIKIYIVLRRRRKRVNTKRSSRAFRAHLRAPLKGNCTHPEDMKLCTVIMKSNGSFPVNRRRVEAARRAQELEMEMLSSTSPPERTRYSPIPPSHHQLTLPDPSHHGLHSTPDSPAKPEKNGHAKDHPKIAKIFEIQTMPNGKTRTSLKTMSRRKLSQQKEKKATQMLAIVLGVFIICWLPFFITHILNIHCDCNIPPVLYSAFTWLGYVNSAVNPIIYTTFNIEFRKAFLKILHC
Put plainly: Radioligand binding inhibition, Dopamine D2. As to conditions: 10 µM; radioligand [^3H]Spiperone; mean of duplicate. The procedure: as §9, §2, §3, §4, §5, §6, §7, §8

Data set [16] has as its system Glutamate (AMPA). Put plainly: Radioligand binding inhibition, Glutamate AMPA. As to conditions: 10 µM; radioligand [^3H]AMPA; mean of duplicate. The procedure:
as §9, §2, §3, §4, §5, §6, §7, §8

T4 sequence (P35367 whole entry): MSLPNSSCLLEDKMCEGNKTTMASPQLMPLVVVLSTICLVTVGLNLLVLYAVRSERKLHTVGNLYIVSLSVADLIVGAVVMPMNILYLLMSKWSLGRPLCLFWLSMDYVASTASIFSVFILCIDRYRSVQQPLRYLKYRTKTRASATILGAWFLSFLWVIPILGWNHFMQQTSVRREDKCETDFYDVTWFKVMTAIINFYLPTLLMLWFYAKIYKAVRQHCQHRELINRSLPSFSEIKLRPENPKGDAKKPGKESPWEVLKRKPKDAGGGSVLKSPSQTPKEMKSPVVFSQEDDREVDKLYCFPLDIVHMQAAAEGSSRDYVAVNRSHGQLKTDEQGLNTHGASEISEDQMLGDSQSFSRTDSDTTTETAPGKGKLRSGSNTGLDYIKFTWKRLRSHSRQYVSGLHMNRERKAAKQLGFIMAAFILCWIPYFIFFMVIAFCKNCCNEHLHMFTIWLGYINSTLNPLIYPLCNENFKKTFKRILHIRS
T1 sequence (P29274 whole entry): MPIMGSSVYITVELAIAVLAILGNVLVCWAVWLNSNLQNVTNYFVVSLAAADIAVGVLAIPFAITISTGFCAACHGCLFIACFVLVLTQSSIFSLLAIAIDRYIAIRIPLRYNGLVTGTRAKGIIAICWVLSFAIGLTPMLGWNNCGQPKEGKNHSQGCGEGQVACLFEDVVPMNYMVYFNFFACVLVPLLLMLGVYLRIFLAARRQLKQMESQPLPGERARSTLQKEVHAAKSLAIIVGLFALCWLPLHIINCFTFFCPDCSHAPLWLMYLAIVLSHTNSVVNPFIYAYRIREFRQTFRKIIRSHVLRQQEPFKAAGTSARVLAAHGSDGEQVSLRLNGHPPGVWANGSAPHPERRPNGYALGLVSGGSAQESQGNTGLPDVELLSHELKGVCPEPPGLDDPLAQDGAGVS
T6 sequence (P28223 whole entry): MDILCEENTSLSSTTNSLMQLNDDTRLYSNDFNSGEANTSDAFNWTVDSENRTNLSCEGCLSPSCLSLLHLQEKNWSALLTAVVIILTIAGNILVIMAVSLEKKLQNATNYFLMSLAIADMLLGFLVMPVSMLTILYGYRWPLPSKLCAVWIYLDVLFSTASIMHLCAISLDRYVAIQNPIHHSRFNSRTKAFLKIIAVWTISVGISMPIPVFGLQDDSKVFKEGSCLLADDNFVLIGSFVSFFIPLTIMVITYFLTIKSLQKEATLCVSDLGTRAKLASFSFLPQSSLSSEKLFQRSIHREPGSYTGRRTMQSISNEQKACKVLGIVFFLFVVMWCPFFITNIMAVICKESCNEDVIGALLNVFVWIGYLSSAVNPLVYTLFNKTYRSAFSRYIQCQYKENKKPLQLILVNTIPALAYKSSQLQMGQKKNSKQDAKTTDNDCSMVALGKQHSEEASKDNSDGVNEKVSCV

In the case of `Cc1ccc(CC(C)NC(C)C)cc1` (stereo not shown) [MMP, N-isopropyl-p-methylamphetamine], the “Inhibition ratio (%)” value in [1] came out at 1.64%; in data set [2], 3.62%; in [3], 0.00%; in data set [4], 3.82%; in data set [5], 44.47%; in [6], 6.90%. In addition, the “Inhibition ratio (%)” value in [7] is recorded as 42.47%; in [8], 11.97%; in data set [11], 23.38%; in data set [12] it was 24.12%; in [13], 4.92%; in data set [14] it was 32.80%. For the same molecule, the “Inhibition ratio (%)” value was 6.04% in data set [15] and 5.98% in [16]. Further, the mutagenic activity result in data set [9] was “no mutagenic activity”. In data set [10], the “inhibition, other brain neuroreceptors” value is under 50%.
